Measurements published in ChEMBL document CHEMBL5331043, “A comprehensive review on acridone based derivatives as future anti-cancer agents and their structure activity relationships” (Eur J Med Chem, 2022).
In brackets after ≈: the same amount, converted by molar mass. Several values for one entry are separate records, joined by “and”; a condition that tells them apart may be missing. Identical values can stand only once.

Columns and labels:
MCF7 [1] = test: Cytotoxicity against human MCF7 cells assessed as reduction in cell viability by SRB assay; assay type: functional, cell-based
[2] = Cytotoxicity against human KB-ChR-8-5 cells assessed as reduction in cell growth incubated for 7 days in presence of vinblastine; assay type: functional, cell-based; details: KB-ChR-8-5, 168 h
MCF7 [3] = test: Antiproliferative activity against human MCF7 cells assessed as reduction in cell viability incubated for 48 hrs by MTT assay; assay type: functional, cell-based; details: MCF7, 48 h
MCF7 [4] = test: Cytotoxicity against human wild type MCF7 cells; assay type: functional, cell-based
[5] = Cytotoxicity against human MCF7/Mitox cells; assay type: functional, cell-based
MCF7-DOX [6] = test: Cytotoxicity against human MCF7-DOX cells; assay type: functional, cell-based
CCRF-CEM = test: Cytotoxicity against human CCRF-CEM cells assessed as cell growth inhibition; assay type: functional, cell-based
PC-3 [7] = test: Antiproliferative activity against human PC-3 cells assessed as reduction in cell viability measured after 24 hrs by MTT assay; assay type: functional, cell-based; details: PC-3, 24 h
MDA-MB-231 = test: Cytotoxicity against human MDA-MB-231 cells assessed as reduction in cell viability incubated for 72 hrs by MTT assay; assay type: functional, cell-based; details: MDA-MB-231, 72 h
MCF7 [8] = test: Cytotoxicity against human MCF7 cells assessed as reduction in cell viability incubated for 72 hrs by MTT assay; assay type: functional, cell-based; details: MCF7, 72 h
[9] = target: Stimulator of interferon genes protein (Homo sapiens, UniProt Q86WV6); test: Activation of STING pathway in human 293T-hSTING-R232 cells incubated for 48 hrs by QUANTI-Luc assay; assay type: cell-based, 293T-hSTING-R232 cell
Raji = test: Antitumor activity against human Raji cells xenografted in ICR mouse assessed as reduction in tumor growth measured after 20 weeks; assay type: functional; design: scale not given: the % may be the effect or the level left
P388 = test: Cytotoxicity against mouse P388 cells; assay type: functional, cell-based
WiDr = test: Cytotoxicity against human WiDr cells assessed as cell growth inhibition incubated for 72 hrs by SRB assay; assay type: functional, cell-based
[10] = Cytotoxicity against human SW1398 cells assessed as cell growth inhibition incubated for 72 hrs by SRB assay; assay type: functional, cell-based; details: SW1398, 72 h
MCF7 [11] = test: Cytotoxicity against human MCF7 cells assessed as cell growth inhibition incubated for 72 hrs by SRB assay; assay type: functional, cell-based; details: MCF7, 72 h
MCF7 [12] = test: Cytotoxicity against human MCF7 cells assessed as reduction in cell growth incubated for 72 hrs by SRB assay; assay type: functional, cell-based; details: MCF7, 72 h
A-431 = test: Cytotoxicity against human A-431 cells assessed as reduction in cell viability measured after 72 hrs by MTT assay; assay type: functional, cell-based; details: A-431, 72 h
MCF7 [13] = test: Cytotoxicity against human MCF7 cells assessed as reduction in cell viability measured after 72 hrs by MTT assay; assay type: functional, cell-based; details: MCF7, 72 h
HeLa = test: Cytotoxicity against human HeLa cells assessed as reduction in cell viability measured after 72 hrs by MTT assay; assay type: functional, cell-based
MCF7 [14] = test: Antitumor activity against human MCF7 cells xenografted in BALB/c nude mouse assessed as inhibition of tumor growth at 1 mg/kg, ip administered once daily for 21 days; assay type: functional; details: MCF7, 504 h, time 21 day, read-out: TGI
HL-60 [15] = test: Cytotoxicity against human HL-60 cells assessed as cell growth inhibition incubated for 72 hrs by tryphan blue staining based analysis; assay type: functional; details: HL-60, 72 h
M14 = test: Cytotoxicity against human M14 cells; assay type: functional; details: read-out: LC50 (the source's name)
UACC-62 = test: Cytotoxicity against human UACC-62 cells; assay type: functional; details: read-out: LC50 (the source's name)
A498 = test: Cytotoxicity against human A498 cells; assay type: functional; details: read-out: LC50 (the source's name)
NCI-H23 = test: Cytotoxicity against human NCI-H23 cells; assay type: functional; details: read-out: LC50 (the source's name)
SW1573 = test: Cytotoxicity against human SW1573 cells assessed as reduction in cell viability incubated for 72 hrs by SRB assay; assay type: functional, cell-based; details: SW1573, 72 h
[16] = target: MAP/microtubule affinity-regulating kinase 4 (Homo sapiens, UniProt Q96L34); test: Inhibition of human MARK4 ATPase activity using ATP as substrate incubated for 10 to 20 mins by Biomol green reagent based ELISA analysis
MCF7 [17] = test: Cytotoxicity against human MCF7 cells assessed as reduction in cell viability incubated for 48 hrs by alamar blue reagent based fluorescence assay; assay type: functional; details: MCF7, 48 h
HepG2 [18] = test: Cytotoxicity against human HepG2 cells assessed as reduction in cell viability incubated for 48 hrs by alamar blue reagent based fluorescence assay; assay type: functional; details: HepG2, 48 h
[19] = Cytotoxicity against human MDA-MB-231/BCRP cells assessed as reduction in cell growth by resazurin reduction assay; assay type: functional, cell-based
[20] = Cytotoxicity against human mitoxantrone resistant human MCF7/Mitox cells assessed as reduction in cell viability incubated for 72 hrs by SRB assay; assay type: functional, cell-based
MCF7 [21] = test: Cytotoxicity against human wild type MCF7 cells assessed as reduction in cell viability measured after 72 hrs by SRB assay; assay type: functional, cell-based; details: MCF7, 72 h
MCF7-DOX [22] = test: Cytotoxicity against human doxorubicin resistant MCF7-DOX cells assessed as reduction in cell viability incubated for 72 hrs by SRB assay; assay type: functional, cell-based
HL-60 [23] = test: Cytotoxicity against human HL-60 cells assessed as cell growth inhibition incubated for 72 hrs by SRB assay; assay type: functional, cell-based; details: HL-60, 72 h
[24] = Cytotoxicity against drug resistant human HL60/VCR assessed as inhibition of cell growth incubated for 72 hrs by SRB assay; assay type: functional, cell-based
HL60/ADR = test: Cytotoxicity against drug resistant human HL60/ADR cells assessed as inhibition of cell growth incubated for 72 hrs by SRB assay; assay type: functional, cell-based
HL-60 [25] = test: Anticancer activity against human HL-60 cells assessed as cell growth inhibition incubated for 72 hrs by MTT assay; assay type: functional, cell-based; details: HL-60, 72 h
HepG2 [26] = test: Antiproliferative activity against human HepG2 cells assessed as reduction in cell viability incubated for 72 hrs by MTT assay; assay type: functional, cell-based; details: HepG2, 72 h
A549 = test: Antiproliferative activity against human A549 cells assessed as reduction in cell viability incubated for 72 hrs by MTT assay; assay type: functional, cell-based; details: A549, 72 h
MCF7 [27] = test: Antiproliferative activity against human MCF7 cells assessed as reduction in cell viability incubated for 72 hrs by MTT assay; assay type: functional, cell-based; details: MCF7, 72 h
PC-3 [28] = test: Antiproliferative activity against human PC-3 cells assessed as reduction in cell viability incubated for 72 hrs by MTT assay; assay type: functional, cell-based; details: PC-3, 72 h
HepG2 [29] = test: Cytotoxicity against human HepG2 cells assessed as reduction in cell viability incubated for 24 hrs by SRB assay; assay type: functional, cell-based; details: HepG2, 24 h
[30] = Cytotoxicity against human KKU-213C assessed as reduction in cell viability incubated for 24 hrs by SRB assay; assay type: functional, cell-based

Chain of MAP/microtubule affinity-regulating kinase 4 (Q96L34 whole entry): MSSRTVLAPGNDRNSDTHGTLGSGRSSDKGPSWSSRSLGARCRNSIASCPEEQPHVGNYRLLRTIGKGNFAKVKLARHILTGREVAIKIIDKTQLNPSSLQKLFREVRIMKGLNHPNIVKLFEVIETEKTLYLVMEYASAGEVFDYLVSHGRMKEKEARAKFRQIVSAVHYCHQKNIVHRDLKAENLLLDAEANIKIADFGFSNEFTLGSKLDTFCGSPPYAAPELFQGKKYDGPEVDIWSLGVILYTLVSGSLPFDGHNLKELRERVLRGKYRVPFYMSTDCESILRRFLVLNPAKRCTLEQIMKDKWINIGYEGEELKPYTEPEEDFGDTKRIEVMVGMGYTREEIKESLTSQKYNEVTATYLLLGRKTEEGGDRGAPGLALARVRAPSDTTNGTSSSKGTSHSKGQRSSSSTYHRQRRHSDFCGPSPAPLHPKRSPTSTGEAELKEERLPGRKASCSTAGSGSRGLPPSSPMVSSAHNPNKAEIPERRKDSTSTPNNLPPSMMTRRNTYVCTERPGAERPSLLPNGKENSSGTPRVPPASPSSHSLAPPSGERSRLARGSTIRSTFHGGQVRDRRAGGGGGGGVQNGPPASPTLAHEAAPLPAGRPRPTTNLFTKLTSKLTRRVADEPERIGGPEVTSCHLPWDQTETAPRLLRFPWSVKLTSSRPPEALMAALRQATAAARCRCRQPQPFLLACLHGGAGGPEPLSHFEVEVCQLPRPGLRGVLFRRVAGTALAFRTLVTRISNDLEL
Chain of Stimulator of interferon genes protein (Q86WV6 whole entry): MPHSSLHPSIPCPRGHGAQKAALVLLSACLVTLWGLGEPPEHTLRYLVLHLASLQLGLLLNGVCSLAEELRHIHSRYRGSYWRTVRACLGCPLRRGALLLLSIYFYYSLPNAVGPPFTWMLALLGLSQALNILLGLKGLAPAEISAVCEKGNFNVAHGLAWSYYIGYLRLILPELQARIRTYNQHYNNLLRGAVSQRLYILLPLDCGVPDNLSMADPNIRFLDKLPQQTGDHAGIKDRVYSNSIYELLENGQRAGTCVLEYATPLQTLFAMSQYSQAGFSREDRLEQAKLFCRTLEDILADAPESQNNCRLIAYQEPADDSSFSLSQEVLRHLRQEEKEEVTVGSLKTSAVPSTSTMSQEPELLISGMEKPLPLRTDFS

Compound: Cc1cccc2c(=O)c3ccccc3n(CCCCN(CCO)CCO)c12
- IC50 (MCF7 [1]): 8.1 µM

Compound: COc1cccc2c(=O)c3ccccc3n(CCCCN3CCN(CCO)CC3)c12
- IC50 [2]: < 6 µM

Compound: Cc1ccc2c(c1)c(=O)c1ccccc1n2CC(=O)NCc1ccccc1
- IC50 (MCF7 [3]): 5.2 µM

Compound: O=C(c1cccc2c(=O)c3ccccc3[nH]c12)N1CCN(c2ccccc2)CC1
- IC50 (MCF7 [4]): 4.5 µM
- IC50 [5]: 5.1 µM
- IC50 (MCF7-DOX [6]): 6.5 µM

Compound: COc1cc(Cn2c3ccc(C(=O)CCN4CCCC4)cc3c(=O)c3cc(C(=O)NCCN4CCCC4)ccc32)cc(OC)c1
- IC50 (CCRF-CEM): 280 nM

Compound: CCN(CC)CCNC(=O)c1ccc([N+](=O)[O-])c2[nH]c3ccccc3c(=O)c12
- IC50 (PC-3 [7]): 2000 nM

Compound: CCOC(=O)c1c(C)nc(NNC(=O)c2cccc3c(=O)c4ccccc4[nH]c23)nc1-c1ccc(CC(C)C)cc1
- IC50 (MDA-MB-231): 8.61 µM
- IC50 (MCF7 [8]): 4.32 µM

Compound: COc1cc2c(=O)c3cccc(CC(=O)O)c3[nH]c2c(C)c1C
- EC50 [9]: 134 µM

Compound: CC(C)=CCc1c(O)c(CC=C(C)C)c2c(c1O)c(=O)c1ccccc1n2C
- Activity (Raji): 48%

Compound: CC(=O)Nc1cc2c(=O)c3ccccc3n3c(=O)n(CCN(C)C)c(=O)c(c1)c23
- IC50 (P388): 0.86 µM

Compound: CN(C)CCn1c(=O)c2cc(N)cc3c(=O)c4ccccc4n(c1=O)c32
- IC50 (P388): 63 µM

Compound: O=C(NC(=O)n1c(-c2ccccc2)nc2ccc(Br)cc2c1=O)c1cccc2c(=O)c3ccccc3[nH]c12
- IC50 (WiDr): 9.8 µM
- IC50 [10]: 6 µM
- IC50 (MCF7 [11]): 7.9 µM
- IC50 (MCF7 [12]): 2900 nM

Compound: COc1cc2c(c(O)c1OC)c(=O)c1ccccc1n2C [ARBORININE]
- IC50 (A-431): 1840 nM
- IC50 (MCF7 [13]): 1840 nM
- IC50 (HeLa): 1840 nM

Compound: CC(=O)Nc1ccc2[nH]c3c(C(=O)NCCN(C)C)cccc3c(=O)c2c1
- IC50 (P388): 22 µM

Compound: O=c1c2ccccc2[nH]c2ccccc12 [ACRIDONE]
- inhibition in vivo at 1 mg/kg (MCF7 [14]): 29%

Compound: CCN(CC)CCCCn1c2ccccc2c(=O)c2c(OC(C)=O)cc(OC(C)=O)cc21
- IC50 (HL-60 [15]): 450 nM

Compound: COc1cc2c(cc1OCCCNC(=O)c1cccc3c(O)c4ccccc4nc13)N=C[C@@H]1CCCN1C2=O
- CC50 (M14): < 10 nM
- CC50 (UACC-62): < 10 nM
- CC50 (A498): 50 nM
- CC50 (NCI-H23): 70 nM

Compound: O=c1c2ccccc2n(CCCCN2CCN(CCO)CC2)c2c(F)cccc12
- IC50 (SW1573): 5.1 µM

Compound: Cc1ccc(NC(=O)Cn2c3ccccc3c(=O)c3cc(C)ccc32)cc1
- IC50 (MCF7 [3]): 5.2 µM
- IC50 [16]: 1800 nM

Compound: CCOC(=O)c1c(C)nc(NNC(=O)c2cccc3c(=O)c4ccccc4[nH]c23)nc1-c1ccc(OC)cc1
- IC50 (MDA-MB-231): 6.28 µM

Compound: COc1cc(O)c2c(=O)c3cccc(O)c3n(C)c2c1OC [CITRUSININE-I]
- IC50 (MCF7 [17]): 220 nM
- IC50 (HepG2 [18]): 220 nM

Compound: O=C(NN1CCN(c2ccccc2)CC1)c1cccc2c(=O)c3ccccc3[nH]c12
- IC50 (MCF7 [4]): 4.5 µM
- IC50 [5]: 5.1 µM
- IC50 (MCF7-DOX [6]): 6.6 µM

Compound: CCN(CC)CCCCn1c2ccccc2c(=O)c2cc(F)ccc21
- IC50 (HL-60 [15]): 510 nM

Compound: CCOC(=O)c1c(C)nc(NNC(=O)c2cccc3c(=O)c4ccccc4[nH]c23)nc1-c1ccc(F)cc1
- IC50 (MCF7 [8]): 7.3 µM

Compound: COc1cc(OC)c2c(=O)c3ccccc3n(C)c2c1
- IC50 [19]: 3.38 µM

Compound: CN(C)CCNC(=O)c1ccc([N+](=O)[O-])c2[nH]c3ccccc3c(=O)c12
- IC50 (PC-3 [7]): 1200 nM

Compound: COc1cc(O)c(OC)c2c1c(=O)c1cccc(O)c1n2C
- IC50 (MCF7 [17]): 220 nM
- IC50 (HepG2 [18]): 220 nM

Compound: Cc1ccc(NC(=O)c2cccc3c(=O)c4ccccc4[nH]c23)cc1
- IC50 (MCF7 [4]): 6.5 µM
- IC50 [5]: 7.4 µM
- IC50 (MCF7-DOX [6]): 8.3 µM

Compound: O=C(c1ccc2c(c1)c(=O)c1ccccc1n2CCCCO[N+](=O)[O-])N1CCOCC1
- IC50 [20]: 800 nM and > 2700 nM
- IC50 (MCF7 [21]): 800 nM
- IC50 (MCF7-DOX [22]): > 1900 nM

Compound: O=c1c2ccccc2n(CCCCN2CCN(CCO)CC2)c2ccc(Br)cc12
- IC50 [2]: 3.7 µM

Compound: CCOC(=O)c1c(C)nc(NNC(=O)c2cccc3c(=O)c4ccccc4[nH]c23)nc1-c1ccccc1F
- IC50 (MDA-MB-231): 7.12 µM

Compound: O=c1c2ccccc2n(CCCCN2CCN(CCO)CC2)c2c(Cl)cccc12
- IC50 (HL-60 [23]): 450 nM
- IC50 [24]: 490 nM
- IC50 (HL60/ADR): 1070 nM

Compound: N#Cc1c(F)c(Cl)c2[nH]c3ccccc3c(=O)c2c1F
- IC50 (HL-60 [25]): 7 nM

Compound: COc1c(O)ccc2c(=O)c3c(O)cc4c(c3n(C)c12)C=CC(C)(C)O4 [CITRACRIDONE I]
- IC50 (HepG2 [26]): 12.5 µM
- IC50 (A549): 12.5 µM
- IC50 (MCF7 [27]): 12.5 µM
- IC50 (PC-3 [28]): 12.5 µM

Compound: COc1cc2[nH]c3c(O)cccc3c(=O)c2c(O)c1CC=C(C)C
- IC50 (HepG2 [29]): 1.43 µg/mL (≈ 4.4 µM)
- IC50 [30]: 1.43 µg/mL (≈ 4.4 µM)

Compound: Cc1ccc2c(c1)c(=O)c1ccccc1n2CCCCN(CCO)CCO
- IC50 (MCF7 [1]): 6.1 µM

Compound: COc1ccc(CNC(=O)Cn2c3ccccc3c(=O)c3cc(C)ccc32)cc1
- IC50 (MCF7 [3]): 5.2 µM
- IC50 [16]: 1800 nM
